The values below come from patent publication US11667645B2, “Granzyme B directed imaging and therapy” (CytoSite Biopharma Inc., priority 2018, dated 2023).

Read-outs that look alike come from different tables or passages of the source.

In general, IC50 refers to the concentration at which inhibition is half-maximal.

In data set [1] the target is Granzyme B (human lymphocytes) (Homo sapiens (Human), UniProt P10144). Briefly: human Granzyme B biochemical assay. Summed up: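 Enzyme (10 nM working stock, assay buffer with 0.1% BSA) pre-incubated with compound for 30 min at 22 °C, then Ac-IETD-AFC (800 µM working stock) added for 60 min at 22 °C in the dark. Fluorescence read at Ex 400/Em 505 nm; 8-point 3.16-fold series (40 µM top working stock); IC50 from % inhibition versus standard-inhibitor and DMSO controls.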

A short description of data set [2]: metabolic stability assay using liver microsomes. The settings on record: human liver microsomes, with NRS at 37° C. Format: in vitro ADME. The method, then: In addition, compounds of Formula I-VIII described above are also tested in the metabolic stability assay using liver microsomes, as provided below.
Buffer pH7.4: Prepare 1 (M) KH2PO4 and 1 (M) K2HPO4. Titrate 1(M) K2HPO4 with 1 (M) KH2PO4 to obtain pH 7.40. Dilute this buffer 10 fold in Water (30 ml buffer+270 ml of water) to obtain 100 mM phosphate buffer. Adjust pH to 7.40±0.02 using 5(N) HCl or 5(N) NaOH.
NADPH Regeneration System (NRS): Prepare a solution containing 13 mM NADP, 33 mM Glucose-6-phosphate, 33 mM MgCl2 and 4 U/ml Glucose-6-phosphate dehydrogenase in buffer.
Liver Microsome (LM) suspension: Thaw LM vial on ice, then mix 1.0 ml LM (20 mg/ml) with 19 ml buffer [final LM Conc: 1 mg/ml]
LM+NRS suspension: Mix 5.0 ml NRS with 20 ml LM suspension [final LM Conc: 0.8 mg/ml]
System suitability standard: a synthesized compound having Mol wt 686.2 used as System suitability standard. Dissolve this compound in ice-cold acetonitrile to obtain concentration of 0.1 μg/ml and store at 4° C.
Compound Stock: 10 mM in DMSO
Sub stock (100 μM): 4 μl of 10 mM Compound Stock+[…] Acetonitrile
Working plate (2 μM): 10 μl of 100 μM Sub stock+490 μl buffer
Incubate all plastic materials including tips at 37° C. overnight.
Incubate LM suspension and NRS at 37° C. for 15 min before use.
Add 40 μl buffer to the wells of blank plate.
Add 40 μl compound (from working plate) to 0, 5, 10, 20, 30 and 60 min plates.
Initiate reaction by adding 40 μl of LM+NRS suspension in each plate.
Terminate reaction by adding 240 μl ice-cold acetonitrile containing system suitability standard at designated time points. For T=0 add 240 μl ice-cold acetonitrile containing system suitability standard before LM+NRS addition.
Centrifuge (3500 rpm, 20 min and 15° C.) the plates.
Mix 110 μl supernatant with 110 μl water and quantitate amount of Compound in the solution using LC-MS/MS.
For Scaled CLint & Predicted CL use the relevant physiological parameters, as applicable.
Human LM: Corning, Cat #25117
Mouse LM: Xenotech, Cat #M1000
(2) Volumes mentioned in the protocol are representative values and may change depending on number of test compounds.
(3) It is assumed that the compounds are chemically stable in the assay system/buffer.
The metabolic stability assay described above can be performed using different test concentrations, LM Concentrations, or time points.
Certain compounds of this disclosure were tested in the microsomal stability assay provided above.
(In general: Liver microsomes are vesicles of endoplasmic reticulum, rich in cytochrome P450 enzymes.)

Where [3] appears, read: Granzyme B (human lymphocytes) 5 nM, substrate Ac-IETD-AFC 200 μM, Cpd incubation with enzyme 30 mins, 22° C., read time 60 mins, read-out: IC50.
Setting [4] is: Granzyme B IC50 as repeated in Table 7, read-out: IC50.
The mark [5] stands for this setting: Granzyme B IC50 as repeated in Table 7.

Sequence of Granzyme B (human lymphocytes) (P10144 21-247): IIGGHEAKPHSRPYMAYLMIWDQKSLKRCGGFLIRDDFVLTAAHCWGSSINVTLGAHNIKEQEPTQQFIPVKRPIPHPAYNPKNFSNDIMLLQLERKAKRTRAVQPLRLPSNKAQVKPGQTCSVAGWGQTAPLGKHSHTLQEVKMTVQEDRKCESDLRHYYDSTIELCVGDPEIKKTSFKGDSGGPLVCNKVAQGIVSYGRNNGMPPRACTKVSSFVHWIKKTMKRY

For the molecule `CC[C@@H](C)[C@H](NC(=O)Cc1csc2ccccc12)C(=O)N[C@H]1CCc2cccc3c2N(C1=O)[C@H](C(=O)NCc1c[nH]nn1)C3` [Compound C054, (2S,5S)-5-[(2S,3R)-2-(2-Benzo[b]thiophen-3-yl-acetylamino)-3-methyl-pentanoylamino]-4-oxo-1,2,4,5,6,7-hexahydro-azepino[3,2,1-hi]indole-2-carboxylic acid (1H-[1,2,3]triazol-4-ylmethyl)-amide], the half-inhibitory concentration (IC50) in data set [1] (setting [3]) and in data set [1] (setting [4]) was 1 to 300 nM in each case. Also, the “HLM % remaining @ 30 min” value in data set [2] is reported as “* (“*” indicates a remaining percentage of 0-30%)”.

In the case of `CC(C)[C@H](NC(=O)COCCF)C(=O)N[C@H]1CCc2cccc3c2N(C1=O)[C@H](C(=O)NCc1c[nH]nn1)C3` [Compound C056, (2S,5S)-5-{(S)-2-[2-(2-Fluoro-ethoxy)-acetylamino]-3-methyl-butyrylamino}-4-oxo-1,2,4,5,6,7-hexahydro-azepino[3,2,1-hi]indole-2-carboxylic acid (1H-[1,2,3]triazol-4-ylmethyl)-amide], the IC50 in data set [1] (setting [3]) and in data set [1] (setting [4]) was 1 to 300 nM throughout. In addition, the “HLM % remaining @ 30 min” value in data set [2] was “*** (the symbol “***” indicates a remaining percentage of 71-100%)”.

For `CC(C)[C@H](NC(=O)CF)C(=O)N[C@H]1CCc2cccc3c2N(C1=O)[C@H](C(=O)NCc1c[nH]nn1)C3` [Compound C057, (2S,5S)-5-[(S)-2-(2-Fluoro-acetylamino)-3-methyl-butyrylamino]-4-oxo-1,2,4,5,6,7-hexahydro-azepino[3,2,1-hi]indole-2-carboxylic acid (1H-[1,2,3]triazol-4-ylmethyl)-amide], the IC50 in data set [1] and in data set [1] (setting [5]) was 1 to 300 nM in each case. Further, the “HLM % remaining @ 30 min” value in data set [2] is listed as “*** (the symbol “***” indicates a remaining percentage of 71-100%)”.

With `CC[C@H](C)[C@H](NC(=O)COCCF)C(=O)N[C@H]1CCc2cccc3c2N(C1=O)[C@H](C(=O)NCc1c[nH]nn1)C3` [Compound C058, (2S,5S)-5-{(2S,3S)-2-[2-(2-Fluoro-ethoxy)-acetylamino]-3-methyl-pentanoylamino}-4-oxo-1,2,4,5,6,7-hexahydro-azepino[3,2,1-hi]indole-2-carboxylic acid (1H-[1,2,3]-triazol-4-ylmethyl)-amide], the half-inhibitory concentration (IC50) in data set [1] (setting [3]) and in data set [1] (setting [4]) was 1 to 300 nM each time. Moreover, in data set [2], the “HLM % remaining @ 30 min” value was “*** (the symbol “***” indicates a remaining percentage of 71-100%)”.

On to `CC[C@H](C)[C@H](NC(=O)CF)C(=O)N[C@H]1CCc2cccc3c2N(C1=O)[C@H](C(=O)NCc1c[nH]nn1)C3` [Compound C059, (2S,5S)-5-[(2S,3S)-2-(2-Fluoro-acetylamino)-3-methyl-pentanoylamino]-4-oxo-1,2,4,5,6,7-hexahydro-azepino[3,2,1-hi]indole-2-carboxylic acid (1H-[1,2,3]triazol-4-ylmethyl)-amide], for which the IC50 in data set [1] and in data set [1] (setting [5]) was 1 to 300 nM each time. In addition, the “HLM % remaining @ 30 min” value in data set [2] is listed as “*** (the symbol “***” indicates a remaining percentage of 71-100%)”.

For the molecule `CC[C@H](C)[C@H](NC(=O)c1ccccc1)C(=O)N[C@H]1COc2cccc3c2N(C1=O)[C@H](C(=O)NCc1c[nH]nn1)C3` [Compound C096, (1S,8S)-8-((2S,3S)-2-Benzoylamino-3-methyl-pentanoylamino)-9-oxo-1,2,8,9-tetrahydro-7H-6-oxa-9a-aza-benzo[cd]azulene-1-carboxylic acid (1H-[1,2,3]triazol-4-ylmethyl)-amide], the IC50 in data set [1] (setting [3]) and in data set [1] (setting [4]) was 1 to 300 nM in each case. Also, the “HLM % remaining @ 30 min” value in data set [2] is “** (“**” indicates a remaining percentage of 31-70%)”.

In the case of `CC[C@H](C)[C@H](NC(C)=O)C(=O)N[C@H]1COc2cccc3c2N(C1=O)[C@H](C(=O)NCc1c[nH]nn1)C3` [Compound C097, (1S,8S)-8-((2S,3S)-2-Acetylamino-3-methyl-pentanoylamino)-9-oxo-1,2,8,9-tetrahydro-7H-6-oxa-9a-aza-benzo[cd]azulene-1-carboxylic acid (1H-[1,2,3]triazol-4-ylmethyl)-amide], the IC50 in data set [1] (setting [3]) and in data set [1] (setting [4]) was 1 to 300 nM each time. For the same molecule, the “HLM % remaining @ 30 min” value in data set [2] is “*** (the symbol “***” indicates a remaining percentage of 71-100%)”.

For the molecule `CC[C@H](C)[C@H](NC(=O)CF)C(=O)N[C@H]1COc2cccc3c2N(C1=O)[C@H](C(=O)NCc1c[nH]nn1)C3` [Compound C098, (1S,8S)-8-[(2S,3S)-2-(2-Fluoro-acetylamino)-3-methyl-pentanoylamino]-9-oxo-1,2,8,9-tetrahydra-7H-6-oxa-9a-aza-benzo[cd]azulene-1-carboxylic acid (1H-[1,2,3]triazol-4-ylmethyl)-amide], the IC50 in data set [1] and in data set [1] (setting [5]) was 1 to 300 nM throughout. For the same molecule, the “HLM % remaining @ 30 min” value in data set [2] was “*** (the symbol “***” indicates a remaining percentage of 71-100%)”.

Turning to `CC[C@H](C)[C@H](NC(=O)COCCF)C(=O)N[C@H]1COc2cccc3c2N(C1=O)[C@H](C(=O)NCc1c[nH]nn1)C3` [Compound C099, (1S,8S)-8-{(2S,3S)-2-[2-(2-Fluoro-ethoxy)-acetylamino]-3-methyl-pentanoylamino}-9-oxo-1,2,8,9-tetrahydro-7H-6-oxa-9a-aza-benzo[cd]azulene-1-carboxylic acid (1H-[1,2,3]triazol-4-ylmethyl)-amide], the IC50 in data set [1] (setting [3]) and in data set [1] (setting [4]) was 1 to 300 nM each time. Besides, the “HLM % remaining @ 30 min” value in data set [2] is reported as “*** (the symbol “***” indicates a remaining percentage of 71-100%)”.

In the case of `CC(C)[C@H](NC(=O)COCCF)C(=O)N[C@H]1COc2cccc3c2N(C1=O)[C@H](C(=O)NCc1c[nH]nn1)C3` [Compound C103, (1S,8S)-8-{(S)-2-[2-(2-Fluoro-ethoxy)-acetylamino]-3-methyl-butyrylamino}-9-oxo-1,2,8,9-tetrahydro-7H-6-oxa-9a-aza-benzo[cd]azulene-1-carboxylic acid (1H-[1,2,3]triazol-4-ylmethyl)-amide], the 50% inhibitory concentration (IC50) in data set [1] (setting [3]) and in data set [1] (setting [4]) was 1 to 300 nM in each case. Moreover, in data set [2], the “HLM % remaining @ 30 min” value is recorded as “*** (the symbol “***” indicates a remaining percentage of 71-100%)”.

Turning to `CC[C@H](C)[C@H](NC(=O)c1ccc(F)nc1)C(=O)N[C@H]1CCc2cccc3c2N(C1=O)[C@H](C(=O)NCc1c[nH]nn1)C3` [Compound C140, (2S,5S)-5-{(2S,3S)-2-[(6-Fluoro-pyridine-3-carbonyl)-amino]-3-methyl-pentanoylamino}-4-oxo-1,2,4,5,6,7-hexahydro-azepino[3,2,1-hi]indole-2-carboxylic acid (1H-[1,2,3]triazol-4-ylmethyl)-amide], the IC50 in data set [1] (setting [3]) and in data set [1] (setting [4]) was 1 to 300 nM in each case. Moreover, the “HLM % remaining @ 30 min” value in data set [2] is given as “*** (the symbol “***” indicates a remaining percentage of 71-100%)”.

Turning to `CC[C@H](C)[C@H](NC(=O)c1ccnc(F)c1)C(=O)N[C@H]1CCc2cccc3c2N(C1=O)[C@H](C(=O)NCc1c[nH]nn1)C3` [Compound C141, (2S,5S)-5-{(2S,3S)-2-[(2-Fluoro-pyridine-4-carbonyl)-amino]-3-methyl-pentanoylamino}4-oxo-1,2,4,5,6,7-hexahydro-azepino[3,2,1-hi]indole-2-carboxylic acid (1H-[1,2,3]triazol-4-ylmethyl)-amide], the IC50 in data set [1] (setting [3]) and in data set [1] (setting [4]) was 1 to 300 nM throughout. Further, the “HLM % remaining @ 30 min” value in data set [2] was “*** (the symbol “***” indicates a remaining percentage of 71-100%)”.
